Like-named read-outs stand apart in the source and are kept apart here.
What was measured:
[1] = system: A2780 ovarian carcinoma cell line; assay: In vitro MTS proliferation/cytotoxicity assay, A2780; assay type: cell-based, human
Procedure: (§1) In vitro cytotoxicity was assessed in tumor cells using a tetrazolium-based colorimetric assay which takes advantage of the metabolic conversion of MTS (3-(4,5-dimethylthiazol-2-yl)-5-(3-carboxymethoxyphenyl)-2-(4-sulphenyl)-2H-tetrazolium, inner salt) to a reduced form that absorbs light at 492 nm. Cells were seeded 24 hr prior to addition of the epothilone, epothilone analog, conjugated epothilone, or conjugated epothilone analog. Following a 72 hour incubation at 37° C. with serially diluted compound, MTS, in combination with the electron coupling agent phenazine methosulfate, was added to the cells. The incubation was continued for 3 hours, then the absorbency of the medium at 492 nm was measured with a spectrophotometer to obtain the number of surviving cells relative to control populations. The results are expressed as median cytotoxic concentrations (IC50 values).
(§2) Other epothilone analogs, e.g., aziridinyl epothilones, are known in the art (see, e.g., U.S. Pat. No. 6,399,638; Regueiro-Ren, A, et al. (2001) Org. Letters. 3:2693-96) and show potent antitumor cytotoxicity. For example, an MTS assay that compared the relative cytotoxic potency of a number of epothilone analogs against a pair of taxane-resistant cancer cell lines (HCTVM46 and […]) was conducted (see Table 1). HCTVM46 is a human colon carcinoma cell line derived from the sensitive HCT116 parent line, and is resistant to taxanes due to overexpression of the 170 kD p-glyprotein drug efflux transporter. A2780Tax is a human ovarian carcinoma cell line derived from the parent A2780 line, and is resistant to paclitaxel as a result of a mutation in the tubulin amino acid sequence that impairs the ability of paclitaxel to bind.
(§3) As is shown in Table 1, various aziridinyl epothilone analogs (Compounds CC-EE) show potent antitumor activity against both the HCT116 colon and A2780 ovarian carcinoma cell lines, compared to other known antitumor agents, e.g., paclitaxel, compound AA, and epothilone B.

HCT116VM46 = assay: In vitro MTS cytotoxicity assay, taxane-resistant HCT116VM46 (R/S ratio); assay type: cell-based, human; conditions: R/S ratio = HCT116VM46 IC50/HCT116 IC50
Procedure: as §1, §2

A2780Tax = assay type: cell-based, human
Procedure: as §1, §2

[2] = system: HCT116 colon carcinoma cell line; assay: cells; assay type: cell-based, human
Procedure: as §1, §2, §3

folate receptor (FR) = target: T1, folate receptor (FR) (Homo sapiens, UniProt P15328); assay: Displacement of radiolabeled folic acid from FR expressed on KB tumor cells; assay type: binding; conditions: compared to folic acid (RA = 1.0)
T1 construct: FR expressed on KB tumor cells grown to confluence; endogenous in cells; host or cells: KB tumor cells
T1 sequence (P15328 25-234): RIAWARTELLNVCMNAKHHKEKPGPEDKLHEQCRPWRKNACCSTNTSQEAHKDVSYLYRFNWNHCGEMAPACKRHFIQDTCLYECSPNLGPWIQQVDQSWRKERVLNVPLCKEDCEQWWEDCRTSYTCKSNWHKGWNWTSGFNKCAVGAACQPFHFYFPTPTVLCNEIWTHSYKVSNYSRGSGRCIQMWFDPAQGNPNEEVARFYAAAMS
Procedure: The binding of these folate conjugates of Compound AA to FR was determined in an assay that measures displacement of radiolabeled folic acid from FR expressed on KB tumor cells grown to confluence.

[3] = system: FRα(−) M109 murine lung carcinoma; assay: In vivo antitumor efficacy, FRα(−) M109 parent tumor model; parameters: species or system mice; conditions: bolus IV; FIG. 5
Source text: (§4) Female CD2F1 mice (Harlan Sprague-Dawley Inc., 20-22 g) maintained in a controlled environment and provided with water and food ad libitum were used in these studies. The murine FRα(−) Madison 109 (M109) lung carcinoma (Marks et al., 1977) and the FR-expressing (FRα(+)) 98M109 variant were used to evaluate the efficacy of the epothilone, epothilone analog (e.g., epothilone derivative), folate-epothilone conjugate, or folate-epothilone analog conjugate. In addition, the human head and neck epidermoid carcinoma KB grown in nude mice was also used for this purpose. […]
(§5) Tumor response was determined by measurement of tumors with a caliper twice a week, until the tumors reached a predetermined “target” size of 1 gm. […]
(§6) Antitumor activity was evaluated at the maximum tolerated dose (MTD) which is defined as the dose level immediately […] which excessive toxicity (i.e. more than one death) occurred. When death occurred, the day of death was recorded. […]
(§7) To estimate tumor cell kill, the tumor volume doubling time (TVDT) was first calculated with the formula: TVDT=Median time (days) for control tumors to reach target size−Median time (days) for control tumors to reach half the target size And, Log cell kill=T-C÷(3.32×TVDT) Statistical evaluations of data were performed using Gehan's generalized Wilcoxon test.

FRα(+) 98M109 tumors = assay: In vivo antitumor efficacy, FRα(+) 98M109 tumors with folate analog competition; parameters: species or system mice; conditions: folate analog at 20-fold excess of the dose of compound J; FIG. 6
Source text: as §4, §5, §6, §7

[4] = system: KB nasopharyngeal epidermoid carcinoma xenografts; assay: In vivo antitumor efficacy, KB FRα(+) xenografts in nude mice; conditions: KB model, FIG. 4
Source text: as §4, §5, §6, §7

[5] = system: clonogenic KB cancer cells; assay: Clonogenic cell survival (colony formation) assay; assay type: cell-based, human
Procedure: Cancer cells were seeded at 3.0E+05 cells in a T75 flask with 10 ml of RPMI1640 media, free of folic acid, and containing 10% fetal bovine serum and 25 mM HEPES. Cells were grown in a 37° C. incubator containing 5% CO2 for 2 days. On day 2, supernatants were removed from the flasks, and the flasks were divided into 2 groups. One group of cells were incubated with 5 ml of media containing […] of folic acid (Sigma) for 30 minutes and the others were grown in 5 ml of media without added folic acid. Cells were then treated with 20 nM of epothilone, epothilone analog, conjugated epothilone, or conjugated epothilone analog for one hour. At the end of the incubation, the drugs were removed from the flasks and the cells were washed with PBS buffer 3×. After washing, 5 ml of complete media were added into each flask, and the cell was grown in the CO2 incubator for 23 hours. The next morning, the cells were removed from the flasks by trypsinization, cell numbers were determined, and then cells were plated in a 6 well plates. Ten days after plating, colonies were stained with crystal violet and counted. The surviving fractions were determined.
This is important because it is the aziridine epothilone analog, e.g., Compound G, that mediates the antitumor effects upon release from folic acid. […] The concentration needed to kill 90% of clonogenic KB cancer cells (IC90) was determined after a drug exposure duration of 17 hours.

[6] = Homo sapiens, A2780, MTS assay, mean IC50 ± SD from four separate experiments, read-out: A2780 IC5
[7] = Homo sapiens, A2780, read-out: A2780 IC5 (nM)
[8] = Homo sapiens, HCT-116, read-out: HCT116 IC50 (nM)

SMILES: C/C(=C\c1csc(C)n1)[C@@H]1C[C@@H]2O[C@]2(C)CCC[C@H](C)[C@H](O)[C@@H](C)C(=O)C(C)(C)[C@@H](O)CC(=O)O1 [Epothilone B]
- IC50 ([1]; MTS assay, mean IC50 ± SD from four separate experiments, read-out: A2780 IC5): 0.23 ± 0.09 nM
- R/S Ratio (HCT116) (HCT116VM46): 0.5
- R/S Ratio (A2780) (A2780Tax): 2.5
- IC50 ([2]; MTS assay, mean IC50 ± SD from four separate experiments, read-out: HCT116 IC50): 0.4 ± 0.13 nM

SMILES: C/C(=C\c1csc(CN)n1)C1C[C@@H]2O[C@]2(C)CCCC(C)[C@H](O)[C@@H](C)C(=O)C(C)(C)[C@@H](O)CC(=O)O1 (some centres unmarked) [Compound AA]
- IC50 [1, 6]: 1.1 ± 0.4 nM
- R/S Ratio (HCT116) (HCT116VM46): 14.8
- R/S Ratio (A2780) (A2780Tax): 3
- IC50 ([2]; Homo sapiens, HCT-116, MTS assay, mean IC50 ± SD from four separate experiments, read-out: HCT116 IC50): 1.2 ± 0.3 nM

SMILES: C/C(=C\c1csc(C)n1)[C@@H]1C[C@H]2[C@@H](CCC[C@H](C)[C@H](O)[C@@H](C)C(=O)C(C)(C)[C@@H](O)CC(=O)O1)N2CCOC(=O)OCCSSC[C@H](NC(=O)[C@H](CC(=O)O)NC(=O)[C@H](CCCNC(=N)N)NC(=O)[C@H](CC(=O)O)NC(=O)CC[C@H](NC(=O)c1ccc(NCc2cnc3nc(N)[nH]c(=O)c3n2)cc1)C(=O)O)C(=O)O (some centres unmarked) [Compound J]
- relative affinity (RA) for folate receptor (folate receptor (FR)): 0.77
- antitumor activity in FRα(−) M109 parent tumor model [3]: poor activity at all dose levels tested
- effect of co-administration of a folate analog on antitumor effects (FRα(+) 98M109 tumors): protect FRα(+) 98M109 tumors from the antitumor effects of compound J
- toxicity at two lower dose levels ([4]; dose levels below MTD): minimal toxicity
- antitumor effects compared at the MTDs ([4]; versus ixabepilone): superior antitumor effects than ixabepilone

SMILES: CC(=O)O[C@H]1C(=O)[C@@]2(C)[C@H]([C@H](OC(=O)c3ccccc3)[C@]3(O)C[C@H](OC(=O)[C@H](O)[C@@H](NC(=O)c4ccccc4)c4ccccc4)C(C)=C1C3(C)C)[C@]1(OC(C)=O)CO[C@@H]1C[C@@H]2O [paclitaxel]
- IC50 [1, 6]: 3.1 ± 1 nM
- R/S Ratio (HCT116) (HCT116VM46): 150

SMILES: C/C(=C\c1csc(C)n1)[C@@H]1C[C@H]2[C@@H](CCCC(C)[C@H](O)[C@@H](C)C(=O)C(C)(C)[C@@H](O)CC(=O)O1)N2CCO (relative stereo) [Compound G, [1S-[1R*,3R*(E),7R*,10S*,11R*,12R*,16S*]]-7,11-Dihydroxy-17-[2-hydroxyethyl]-8,8,10,12-tetramethyl-3-[1-methyl-2-(2-methyl-4-thiazolyl)ethenyl]-4-oxa-17-azabicyclo[14.1.0]heptadecane-5,9-dione]
- fold more potent than compound AA ([5]; IC90, KB cells, 17 hours): ~4 fold
- fold more potent than compound CC ([5]; IC90, KB cells, 17 hours): ~2 fold
- fold more potent than ixabepilone ([5]; IC90, KB cells, 17 hours): ~6 fold
- concentration needed to kill 90% of clonogenic KB cancer cells (IC90) ([5]; drug exposure duration of 17 hours, FIG. 3): 4.3 nM

SMILES: C/C(=C\c1csc(C)n1)C1C[C@@H]2N[C@@H]2CCCC(C)[C@H](O)[C@@H](C)C(=O)C(C)(C)[C@@H](O)CC(=O)O1 (some centres unmarked) [Compound CC]
- IC50 [1, 7]: 3.4 ± 1.5 nM
- R/S Ratio (HCT116) (HCT116VM46): 3.1
- R/S Ratio (A2780) (A2780Tax): 4.7
- IC50 [2, 8]: 4.2 ± 2.8 nM

SMILES: Nc1nc2ncc(CNc3ccc(C(=O)N[C@@H](CCC(=O)O)C(=O)O)cc3)nc2c(=O)[nH]1 [folic acid]
- relative affinity (RA) for folate receptor (folate receptor (FR)): 1.0

SMILES: C/C(=C\c1csc(C)n1)[C@@H]1C[C@@H]2O[C@]2(C)CCC[C@H](C)[C@H](O)[C@@H](C)C(=O)C(C)(C)[C@@H](O)CC(=O)N1 [ixabepilone]
- antitumor activity in FRα(−) M109 parent tumor model [3]: active at its MTD

SMILES: C/C(=C\c1csc(C)n1)C1C[C@H]2[C@@H](CCCC(C)[C@H](O)[C@@H](C)C(=O)C(C)(C)[C@@H](O)CC(=O)O1)N2C (some centres unmarked) [DD]
- IC50 [1, 7]: 0.25 ± 0.06 nM
- R/S Ratio (HCT116) (HCT116VM46): 0.6
- R/S Ratio (A2780) (A2780Tax): 4.1
- IC50 [2, 8]: 0.37 ± 0.13 nM
